US6890947B2, “Indolyl derivatives” (Hoffmann-La Roche Inc., priority 2002, dated 2005)

Tests used:
human PPARα [1] = target: T1, human PPARα (Homo sapiens, UniProt Q07869); assay: PPARα radioligand binding assay (GST-PPARα-LBD fusion protein); parameters: made in house; host or cells: E. coli BL21(pLysS)
T1 sequence (Q07869 167-468 limits assumed): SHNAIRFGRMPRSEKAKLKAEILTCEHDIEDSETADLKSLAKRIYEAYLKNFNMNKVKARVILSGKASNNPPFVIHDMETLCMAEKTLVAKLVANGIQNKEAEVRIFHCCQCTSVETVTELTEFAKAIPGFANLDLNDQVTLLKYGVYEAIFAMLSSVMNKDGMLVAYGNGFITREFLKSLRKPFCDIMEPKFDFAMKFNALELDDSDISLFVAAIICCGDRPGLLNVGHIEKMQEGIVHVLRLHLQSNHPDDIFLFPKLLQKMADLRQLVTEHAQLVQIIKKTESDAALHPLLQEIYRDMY
Source text: (§1) Full-length cDNA clones for human PPARα and mouse PPARγ were obtained by RT-PCR from human adipose and mouse liver cRNA, respectively, cloned into plasmid vectors and verified by DNA sequencing. […] To accomplish this, the portions of the cloned sequences encoding the LBDs were amplified from the full-length clones by PCR and then subcloned into the plasmid vectors. Final clones were verified by DNA sequence analysis.
(§2) Induction, expression, and purification of GST-LBD fusion proteins were performed in E. coli strain BL21(pLysS) cells by standard methods (Ref: Current Protocols in Molecular Biology, Wiley Press, edited by Ausubel et al.).
(§3) Radioligand Binding Assay
PPARα receptor binding was assayed in TKE10 (10 mM Tris-HCl, pH 8, 50 mM KCl, 2 mM EDTA, […] fatty acid free BSA and 10 mM DTT). For each 96 well 2.4 ug equivalent of GST-PPARα-LBD fusion protein and radioligand, e.g. 40000 dpm 2(S)-(2-benzoyl-phenylamino)-3-{4-[1,1-ditritio-2-(5-methyl-2-phenyl-oxazol-4-yl)-ethoxy]-phenyl}-propionic acid, were incubated in 100 ul volume at RT for 2 hrs. Bound ligand was removed from unbound ligand by solid phase separation using MultiScreen plates (Millipore) filled with 80 ul of SG25 according to the manufacturer's recommendations.
(§4) PPARγ receptor binding was assayed in TKE50 (50 mM Tris-HCl, pH 8, 50 mM KCl, […], 0.1 mg/ml fatty acid-free […] and 10 mM DTT). For each 96 well reaction an 140 ng equivalent of GST-PPARγ-LBD fusion protein was bound to 10 ug SPA beads (PharmaciaAmersham) in a final volume of 50 ul by shaking. The resulting slurry was incubated for 1 h at RT and centrifuged for 2 min at 1300 g. The supernatant containing unbound protein was removed and the semidry pellet containing the recptor-coated beads was resolved in 50 ul of TKE. For radioligand binding e.g. 10000 dpm 2(S)-(2-benzoyl-phenylamino)-3-{4-[1, 1-ditritio-2-(5-methyl-2-phenyl-oxazol-4-yl)-ethoxy]-phenyl}-propionic acid in 50 ul were added, the reaction incubated at RT for 1h and scintillation proximity counting performed. All binding assays were performed in 96 well plates and the amount of bound ligand measured on a Packard TopCount using OptiPlates (Packard). Nonspecific binding was determined in the presence of 10^−4 M unlabelled compound. Dose response curves were done in triplicates within a range of concentration from 10^−10 M to 10^−4 M.

mouse PPARγ [2] = target: T2, mouse PPARγ (Mus musculus, UniProt P37238); assay: Luciferase transcriptional reporter gene assay, pFA-PPARγ-LBD in BHK21 cells; type: cell-based; parameters: expressed in transfected cells; host or cells: BHK21 (ATCC CCL10); details: Gal4-PPARγ-LBD
T2 sequence (P37238 204-505): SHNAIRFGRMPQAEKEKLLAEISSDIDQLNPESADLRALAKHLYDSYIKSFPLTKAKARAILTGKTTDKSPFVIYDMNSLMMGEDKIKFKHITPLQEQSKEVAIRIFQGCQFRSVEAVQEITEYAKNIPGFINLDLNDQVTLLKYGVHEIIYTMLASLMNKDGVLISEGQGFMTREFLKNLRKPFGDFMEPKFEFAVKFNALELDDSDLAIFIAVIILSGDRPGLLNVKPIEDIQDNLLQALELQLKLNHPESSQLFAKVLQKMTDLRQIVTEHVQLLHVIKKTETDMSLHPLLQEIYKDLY
Source text: as §1
(§5) Luciferase Transcriptional Reporter Gene Assays
(§6) Baby hamster kidney cells (BHK21 ATCC CCL10) were grown in DMEM medium containing 10% FBS at 37° C. in a […] atmosphere. Cells were seeded in 6 well plates at a density of 10^5 Cells/well and then transiently batch-transfected with either the pFA-PPARγ-LBD or pFA-PPARα-LBD expression plasmids plus the pFR-luc reporter plasmid and an expression plasmid encoding the secretable form of alkaline phosphatase (SEAP) as a normalization control. […] Six hours following transfection, the cells were harvested by trypsinization and seeded in 96 well plates at a density of 10^4 cells/well. After 24 hours to allow attachment of cells, the medium was removed and replaced with 100 ul of phenol red-free medium containing the test substances or control ligands (final. 0.1% DMSO). Following incubation of the cells for 24 hours with substances, 50 ul of the supernatant was recovered and analyzed for SEAP activity (Roche Molecular Biochemicals). The remainder of the supernatant was discarded, 50 ul PBS was added per well followed by one volume of Luciferase Constant-Light Reagent (Roche Molecular Biochemicals) to lyse the cells and initiate the luciferase reaction. Luminescence for both SEAP and luciferase was measured in a Packard TopCount. Luciferase activity was normalized to the SEAP control and transcriptional activation in the presence of a test substance was expressed as fold-activation over cells incubated in the absence of the substance. EC50 values were calculated using the XLfit program (ID Business Solutions Ltd. UK).

mouse PPARγ [3] = target: T2, mouse PPARγ; assay: PPARγ radioligand binding assay (GST-PPARγ-LBD fusion protein, scintillation proximity); details: SPA
Source text: as §1, §2, §3, §4

human PPARα [4] = target: T1, human PPARα; assay: Luciferase transcriptional reporter gene assay, pFA-PPARα-LBD in BHK21 cells; type: cell-based; details: Gal4-PPARα-LBD
Source text: as §1, §5, §6

Row | Compound | IC50 (human PPARα [1]) | EC50 (mouse PPARγ [2]) | IC50 (mouse PPARγ [3]) | EC50 (human PPARα [4])
1 | CCOC(Cc1ccc2c(c1)c(C)cn2Cc1nc(-c2ccc(F)c(C)c2)oc1C)C(=O)O (racemic) [Example 39, Rac-2-Ethoxy-3-{1-[2-(4-fluoro-3-methyl-phenyl)-5-methyl-oxazol-4-ylmethyl]-3-methyl-1H-indol-5-yl}-propionic Acid] | 60 nM | 20 nM | 110 nM | 470 nM
2 | CCO[C@@H](Cc1ccc2c(ccn2Cc2nc(-c3ccc(C(F)(F)F)cc3)oc2C)c1)C(=O)O [Example 18, (S)-2-Ethoxy-3-{1-[5-methyl-2-(4-trifluoromethyl-phenyl)-oxazol-4-ylmethyl]-1H-indol-5-yl}-propionic Acid] | 30 nM | 130 nM | 180 nM | 80 nM
3 | CCO[C@@H](Cc1ccc2c(ccn2Cc2nc(-c3ccccc3OC)oc2C)c1)C(=O)O [Example 8, (S)-2-Ethoxy-3-{1-[2-(2-methoxy-phenyl)-5-methyl-oxazol-4-ylmethyl]-1H-indol-5-yl}-propionic Acid] | 280 nM | 560 nM | 400 nM | 190 nM
4 | CCO[C@@H](Cc1ccc2c(ccn2Cc2nc(-c3ccccc3Cl)oc2C)c1)C(=O)O [Example 5, (S)-3-{1-[2-(2-Chloro-phenyl)-5-methyl-oxazol-4-ylmethyl]-1H-indol-5-yl}-2-ethoxy-propionic Acid] | 240 nM | – | – | 1520 nM
5 | CCO[C@@H](Cc1ccc2c(ccn2Cc2nc(-c3ccc(F)c(C)c3)oc2C)c1)C(=O)O [Example 25, (S)-2-Ethoxy-3-{1-[2-(4-fluoro-3-methyl-phenyl)-5-methyl-oxazol-4-ylmethyl]-1H-indol-5-yl}-propionic Acid] | 120 nM | 50 nM | 50 nM | 60 nM
6 | CCOC(Cc1ccc2c(c1)cc(C)n2Cc1csc(-c2ccccc2)n1)C(=O)O (racemic) [Example 44, Rac-2-Ethoxy-3-[2-methyl-1-(2-phenyl-thiazol-4-ylmethyl)-1H-indol-5-yl]-propionic Acid] | 1640 nM | 2700 nM | 1410 nM | 5240 nM
7 | CCO[C@@H](Cc1ccc2c(ccn2Cc2nc(-c3cc(OC)cc(OC)c3)oc2C)c1)C(=O)O [Example 21, (S)-3-{1-[2-(3,5-Dimethoxy-phenyl)-5-methyl-oxazol-4-ylmethyl]-1H-indol-5-yl}-2-ethoxy-propionic Acid] | 30 nM | – | – | 30 nM
